Experimental data as given in ChEMBL document CHEMBL5385944, “Hydrazyl hydroxycoumarins as new potential conquerors towards Pseudomonas aeruginosa” (Bioorg Med Chem Lett, 2024).
≈ marks a conversion by molar mass, not a printed value.

Assays:
Assay type in all cases: functional
[1] = test system: Staphylococcus aureus; experiment: Antibacterial activity against Staphylococcus aureus ATCC 25923 assessed as reduction in bacterial growth by CLSI protocol based method
[2] = test system: Pseudomonas aeruginosa; experiment: Antibacterial activity against Pseudomonas aeruginosa ATCC 90027 assessed as reduction in bacterial growth by CLSI protocol based method
[3] = test system: Staphylococcus aureus; experiment: Antibacterial activity against methicillin resistant Staphylococcus aureus assessed as reduction in bacterial growth by CLSI protocol based method
[4] = test system: Staphylococcus aureus; experiment: Antibacterial activity against Staphylococcus aureus ATCC 29213 assessed as reduction in bacterial growth by CLSI protocol based method
[5] = test system: Acinetobacter baumannii; experiment: Antibacterial activity against Acinetobacter baumannii assessed as reduction in bacterial growth by CLSI protocol based method
[6] = test system: Escherichia coli; experiment: Antibacterial activity against Escherichia coli ATCC 25922 assessed as reduction in bacterial growth by CLSI protocol based method
[7] = test system: Enterococcus faecalis; experiment: Antibacterial activity against Enterococcus faecalis assessed as reduction in bacterial growth by CLSI protocol based method
[8] = test system: Pseudomonas aeruginosa; experiment: Antibacterial activity against Pseudomonas aeruginosa ATCC 27853 assessed as reduction in bacterial growth by CLSI protocol based method
[9] = test system: Klebsiella pneumoniae; experiment: Antibacterial activity against Klebsiella pneumoniae assessed as reduction in bacterial growth by CLSI protocol based method
[10] = test system: Staphylococcus aureus; experiment: Antibacterial activity against methicillin resistant Staphylococcus aureus 43300 assessed as reduction in bacterial growth by CLSI protocol based method
[11] = test system: Pseudomonas aeruginosa; experiment: Antibacterial activity against Pseudomonas aeruginosa assessed as reduction in bacterial growth by CLSI protocol based method
[12] = test system: Pseudomonas aeruginosa; experiment: Antibacterial activity against Pseudomonas aeruginosa ATCC 10104 assessed as reduction in bacterial growth by CLSI protocol based method
[13] = Induction of drug resistance in Pseudomonas aeruginosa ATCC 27853 measured after 12 passages

| Compound | MIC [1] [µg/mL] | MIC [2] [µg/mL] | MIC [3] [µg/mL] | MIC [4] [µg/mL] | MIC [5] [µg/mL] | MIC [6] [µg/mL] | MIC [7] [µg/mL] | MIC [8] [µg/mL] | MIC [9] [µg/mL] | MIC [10] [µg/mL] | MIC [11] [µg/mL] | MIC [12] [µg/mL] | MIC [13] [µg/mL] |
| --- | --- | --- | --- | --- | --- | --- | --- | --- | --- | --- | --- | --- | --- |
| O=C(N/N=C/c1c(O)ccc2ccc(=O)oc12)c1ccc(O)cc1 | 512 (≈ 1580 µM) | 512 (≈ 1580 µM) | 512 (≈ 1580 µM) | 512 (≈ 1580 µM) | 512 (≈ 1580 µM) | 512 (≈ 1580 µM) | 512 (≈ 1580 µM) | 512 (≈ 1580 µM) | 256 (≈ 789 µM) | 512 (≈ 1580 µM) | 512 (≈ 1580 µM) | 512 (≈ 1580 µM) | – |
| N=C(N)N/N=C/c1c(O)ccc2ccc(=O)oc12 | 512 (≈ 2080 µM) | 4 (≈ 16.2 µM) | 512 (≈ 2080 µM) | 64 (≈ 260 µM) | 256 (≈ 1040 µM) | 256 (≈ 1040 µM) | 32 (≈ 130 µM) | 256 (≈ 1040 µM) | 512 (≈ 2080 µM) | 256 (≈ 1040 µM) | 4 (≈ 16.2 µM) | 512 (≈ 2080 µM) | – |
| Cc1cc(NS(=O)(=O)c2ccc(N/N=C/c3c(O)ccc4ccc(=O)oc34)cc2)no1 | 256 (≈ 581 µM) | 256 (≈ 581 µM) | 256 (≈ 581 µM) | 512 (≈ 1160 µM) | 256 (≈ 581 µM) | 512 (≈ 1160 µM) | 256 (≈ 581 µM) | 512 (≈ 1160 µM) | 256 (≈ 581 µM) | 512 (≈ 1160 µM) | 512 (≈ 1160 µM) | 256 (≈ 581 µM) | – |
| O=c1ccc2ccc(O)c(/C=N/NS(=O)(=O)Cc3ccccc3)c2o1 | 38 (≈ 106 µM) | 512 (≈ 1430 µM) | 256 (≈ 714 µM) | 16 (≈ 44.6 µM) | 512 (≈ 1430 µM) | 256 (≈ 714 µM) | 128 (≈ 357 µM) | 512 (≈ 1430 µM) | 512 (≈ 1430 µM) | 512 (≈ 1430 µM) | 512 (≈ 1430 µM) | 512 (≈ 1430 µM) | – |
| CCn1cc(C(=O)O)c(=O)c2cc(F)c(N3CCNCC3)cc21 [NORFLOXACIN] | 2 (≈ 6.26 µM) | 2 (≈ 6.26 µM) | 4 (≈ 12.5 µM) | 2 (≈ 6.26 µM) | 2 (≈ 6.26 µM) | 4 (≈ 12.5 µM) | 4 (≈ 12.5 µM) | 4 (≈ 12.5 µM) | 4 (≈ 12.5 µM) | 8 (≈ 25.1 µM) | 4 (≈ 12.5 µM) | 5 (≈ 15.7 µM) | 128 (≈ 401 µM) |
| COC(=O)N/N=C/c1c(O)ccc2ccc(=O)oc12 | 64 (≈ 244 µM) | 128 (≈ 488 µM) | 512 (≈ 1950 µM) | 512 (≈ 1950 µM) | 128 (≈ 488 µM) | 1 (≈ 3.81 µM) | 256 (≈ 976 µM) | 256 (≈ 976 µM) | 128 (≈ 488 µM) | 512 (≈ 1950 µM) | 32 (≈ 122 µM) | 512 (≈ 1950 µM) | – |
| Nc1ncc(C(=O)N/N=C/c2c(O)ccc3ccc(=O)oc23)s1 | 1 (≈ 3.03 µM) | 1 (≈ 3.03 µM) | 16 (≈ 48.4 µM) | 256 (≈ 775 µM) | 1 (≈ 3.03 µM) | 128 (≈ 387 µM) | 128 (≈ 387 µM) | 32 (≈ 96.9 µM) | 8 (≈ 24.2 µM) | 64 (≈ 194 µM) | 256 (≈ 775 µM) | 2 (≈ 6.05 µM) | – |
| Cc1ncc([N+](=O)[O-])n1CC(=O)N/N=C/c1c(O)ccc2ccc(=O)oc12 | 4 (≈ 10.8 µM) | 32 (≈ 86.2 µM) | 256 (≈ 689 µM) | 256 (≈ 689 µM) | 256 (≈ 689 µM) | 256 (≈ 689 µM) | 32 (≈ 86.2 µM) | 8 (≈ 21.5 µM) | 256 (≈ 689 µM) | 128 (≈ 345 µM) | 256 (≈ 689 µM) | 64 (≈ 172 µM) | – |
| N/N=C/c1c(O)ccc2ccc(=O)oc12 | 16 (≈ 78.4 µM) | 512 (≈ 2510 µM) | 128 (≈ 627 µM) | 512 (≈ 2510 µM) | 256 (≈ 1250 µM) | 32 (≈ 157 µM) | 512 (≈ 2510 µM) | 128 (≈ 627 µM) | 128 (≈ 627 µM) | 128 (≈ 627 µM) | 512 (≈ 2510 µM) | 512 (≈ 2510 µM) | – |
| O=c1ccc2ccc(O)c(/C=N/NS(=O)(=O)c3cccc4ccccc34)c2o1 | 512 (≈ 1300 µM) | 256 (≈ 649 µM) | 256 (≈ 649 µM) | 512 (≈ 1300 µM) | 256 (≈ 649 µM) | 256 (≈ 649 µM) | 512 (≈ 1300 µM) | 256 (≈ 649 µM) | 512 (≈ 1300 µM) | 16 (≈ 40.6 µM) | 64 (≈ 162 µM) | 128 (≈ 325 µM) | – |
| O=C(N/N=C/c1c(O)ccc2ccc(=O)oc12)c1ccccc1 | 2 (≈ 6.49 µM) | 32 (≈ 104 µM) | 256 (≈ 830 µM) | 512 (≈ 1660 µM) | 512 (≈ 1660 µM) | 2 (≈ 6.49 µM) | 128 (≈ 415 µM) | 256 (≈ 830 µM) | 32 (≈ 104 µM) | 512 (≈ 1660 µM) | 16 (≈ 51.9 µM) | 1 (≈ 3.24 µM) | – |
| O=C(N/N=C/c1c(O)ccc2ccc(=O)oc12)c1ccc([N+](=O)[O-])cc1 | 512 (≈ 1450 µM) | 512 (≈ 1450 µM) | 512 (≈ 1450 µM) | 512 (≈ 1450 µM) | 512 (≈ 1450 µM) | 4 (≈ 11.3 µM) | 512 (≈ 1450 µM) | 512 (≈ 1450 µM) | 512 (≈ 1450 µM) | 512 (≈ 1450 µM) | 512 (≈ 1450 µM) | 512 (≈ 1450 µM) | – |
| Cc1ccc(S(=O)(=O)N/N=C/c2c(O)ccc3ccc(=O)oc23)cc1 | 512 (≈ 1430 µM) | 512 (≈ 1430 µM) | 512 (≈ 1430 µM) | 256 (≈ 714 µM) | 512 (≈ 1430 µM) | 256 (≈ 714 µM) | 512 (≈ 1430 µM) | 512 (≈ 1430 µM) | 512 (≈ 1430 µM) | 512 (≈ 1430 µM) | 512 (≈ 1430 µM) | 512 (≈ 1430 µM) | – |
| O=C(N/N=C/c1c(O)ccc2ccc(=O)oc12)c1ccc(F)cc1 | 256 (≈ 785 µM) | 512 (≈ 1570 µM) | 512 (≈ 1570 µM) | 512 (≈ 1570 µM) | 256 (≈ 785 µM) | 256 (≈ 785 µM) | 512 (≈ 1570 µM) | 512 (≈ 1570 µM) | 256 (≈ 785 µM) | 16 (≈ 49 µM) | 512 (≈ 1570 µM) | 128 (≈ 392 µM) | – |
| O=c1ccc2ccc(O)c(/C=N/NS(=O)(=O)c3ccccc3)c2o1 | 512 (≈ 1490 µM) | 512 (≈ 1490 µM) | 512 (≈ 1490 µM) | 32 (≈ 92.9 µM) | 512 (≈ 1490 µM) | 512 (≈ 1490 µM) | 512 (≈ 1490 µM) | 512 (≈ 1490 µM) | 2 (≈ 5.81 µM) | 512 (≈ 1490 µM) | 512 (≈ 1490 µM) | 512 (≈ 1490 µM) | – |
| CC(=O)Nc1ccc(S(=O)(=O)N/N=C/c2c(O)ccc3ccc(=O)oc23)cc1 | 512 (≈ 1280 µM) | 64 (≈ 159 µM) | 512 (≈ 1280 µM) | 512 (≈ 1280 µM) | 128 (≈ 319 µM) | 256 (≈ 638 µM) | 512 (≈ 1280 µM) | 512 (≈ 1280 µM) | 512 (≈ 1280 µM) | 512 (≈ 1280 µM) | 512 (≈ 1280 µM) | 512 (≈ 1280 µM) | – |
| O=c1ccc2ccc(O)c(/C=N/NS(=O)(=O)c3ccc(Cl)cc3)c2o1 | 512 (≈ 1350 µM) | 512 (≈ 1350 µM) | 512 (≈ 1350 µM) | 4 (≈ 10.6 µM) | 512 (≈ 1350 µM) | 256 (≈ 676 µM) | 512 (≈ 1350 µM) | 512 (≈ 1350 µM) | 256 (≈ 676 µM) | 512 (≈ 1350 µM) | 256 (≈ 676 µM) | 512 (≈ 1350 µM) | – |
| O=C(N/N=C/c1c(O)ccc2ccc(=O)oc12)c1ccc(Cl)cc1 | 256 (≈ 747 µM) | 256 (≈ 747 µM) | 512 (≈ 1490 µM) | 256 (≈ 747 µM) | 256 (≈ 747 µM) | 256 (≈ 747 µM) | 256 (≈ 747 µM) | 256 (≈ 747 µM) | 256 (≈ 747 µM) | 512 (≈ 1490 µM) | 256 (≈ 747 µM) | 32 (≈ 93.4 µM) | – |
| O=c1ccc2ccc(O)c(/C=N/NS(=O)(=O)c3cccc4c3OCC4)c2o1 | 512 (≈ 1330 µM) | 512 (≈ 1330 µM) | 512 (≈ 1330 µM) | 512 (≈ 1330 µM) | 512 (≈ 1330 µM) | 512 (≈ 1330 µM) | 512 (≈ 1330 µM) | 512 (≈ 1330 µM) | 512 (≈ 1330 µM) | 512 (≈ 1330 µM) | 512 (≈ 1330 µM) | 512 (≈ 1330 µM) | – |
| Nc1ccc(C(=O)N/N=C/c2c(O)ccc3ccc(=O)oc23)cc1 | 512 (≈ 1580 µM) | – | 512 (≈ 1580 µM) | 512 (≈ 1580 µM) | 256 (≈ 792 µM) | 512 (≈ 1580 µM) | 32 (≈ 99 µM) | 512 (≈ 1580 µM) | 256 (≈ 792 µM) | 512 (≈ 1580 µM) | 512 (≈ 1580 µM) | 512 (≈ 1580 µM) | – |
| O=c1ccc2ccc(O)c(/C=N/Nc3ccc(S(=O)(=O)Nc4nccs4)cc3)c2o1 | 256 (≈ 579 µM) | 256 (≈ 579 µM) | 512 (≈ 1160 µM) | 256 (≈ 579 µM) | 256 (≈ 579 µM) | 512 (≈ 1160 µM) | 512 (≈ 1160 µM) | 256 (≈ 579 µM) | 512 (≈ 1160 µM) | 512 (≈ 1160 µM) | 256 (≈ 579 µM) | 512 (≈ 1160 µM) | – |
